In US20040014721A1, “Method for using tethered bis(polyhydroxyphenyls) and O-alkyl derivatives thereof in treating inflammatory conditions of the central nervous system” (Oklahoma Medical Research Foundation, priority 2002, published 2004):
Read-outs that look alike come from different tables or passages of the source.

Tests used:
[1] = test system: TNFα-Stimulated NO2^− Production in EOC-20 Cells; assay: TNFα-stimulated nitrite (NO2−) production in EOC-20 microglial cells, Griess assay; type: cell-based, mouse
Procedure: Cells were cultured in 24 well plates until confluent then treated with test agent, which was dissolved at 100× final concentration in dimethylsulfoxide (DMSO), or with vehicle only. Thirty minutes after treatment with test agent, cells were treated with 10 ng/mL recombinant mouse TNFα (Pharmingen, San Diego, Calif. USA). […] Each compound was tested at 100 μM, 20 μM, 4 μM, 0.8 μM and 0 μM in the presence of TNFα. Four wells of cells were used for each concentration of test agent.
(§1) Lower IC50 values indicate improved efficacy. FIG. 2 illustrates the principle of the measurement using NDGA as an example test agent. In order to determine viability, cell culture medium was replaced with phenol-free DMEM (Gibco) containing 20 μL/mL of MTT viability reagent (Promega). […] Control cells were taken to indicate 100% viability and intermediate values of MTT reduction were scaled to percentage of control. For each compound, an LD50 value was determined by extrapolation through sublethal concentrations. This value represents the concentration that reduced the MTT viability parameter by 50%.

EOC-20 cells = test system: EOC-20 cells
Procedure: as §1

LnCAP Production of PSA = assay: LnCAP production of PSA (ELISA); type: cell-based; conditions: 24 h
Procedure: LnCAP prostate cancer cells were be cultured according to established methods (Horoszewicz et al., 1983). These cells product prostate-specific antigen (PSA), a serine protease that predicts metastatic potential ([…] et al., 2000). […] Each drug was tested in triplicate at each concentration. Medium was removed and tested for PSA concentration using a commercially available enzyme-linked immunosorbent assay (ELISA). Viability was determined in the adherent cells using the MTT assay.

[2] = Mus musculus, 24 h, Table III, 10 ng/mL TNFα, 24 hr, by interpolation, read-out: IC50
[3] = Table III, MTT viability, by extrapolation through sublethal concentrations
[4] = Table III, 10 ng/mL TNFα, 24 hr, by interpolation, read-out: IC50
[5] = Table III, 10 ng/mL TNFα, 24 hr, by interpolation
[6] = Mus musculus, Table V, read-out: IC50
[7] = Mus musculus, Table V, * obtained by linear extrapolation from points ≦100 μM, read-out: IC50
[8] = Mus musculus, Table III, 10 ng/mL TNFα, 24 hr, by interpolation, read-out: IC50
[9] = Table V, * obtained by linear extrapolation from points ≦100 μM

SMILES: O=c1cc(-c2ccccc2)oc2ccccc12 [Flavone]
- IC50 [1, 2]: 60 µM
- LD50 (EOC-20 cells; [3]): 7 μm

SMILES: N#CC(C#N)=Cc1ccc([N+](=O)[O-])c(O)c1 [Tyrphostin AG126]
- IC50 [1, 4]: 18 µM
- LD50 (EOC-20 cells; [3]): 150 μm

SMILES: CC(C)c1ccc2c(c1)c(SC(C)(C)C)c(CC(C)(C)C(=O)O)n2Cc1ccc(Cl)cc1 [MK-886]
- IC50 ([1]; Table V, read-out: IC50): 41 µM
- LD50 (EOC-20 cells): 40 µM

SMILES: O=c1cc(-c2ccc(O)cc2)oc2cc(O)cc(O)c12 [4′,5,7-trihydroxy-flavone (apigenin), 4′,5,7-trihydroxy-flavone]
- IC50 [1, 2]: 55 µM
- LD50 (EOC-20 cells; [3]): 87 μm

SMILES: C[S+]([O-])c1ccc(-c2nc(-c3ccncc3)c(-c3ccc(F)cc3)[nH]2)cc1 (stereo not drawn) [SB203580]
- LD50 (EOC-20 cells; [3]): 100 μm

SMILES: COc1ccc(-c2coc3cc(O)cc(O)c3c2=O)cc1 [4′-methoxy-5,7-dihydroxyisoflavone]
- IC50 [1, 2]: 49 µM
- LD50 (EOC-20 cells; mouse): 112 μm

SMILES: O=c1c(O)c(-c2ccccc2)oc2ccccc12 [3-OH-flavone]
- IC50 [1, 4]: 70 µM
- LD50 (EOC-20 cells): 125 μm

SMILES: Oc1ccc(C#CC/C=C/c2ccc(O)c(O)c2)cc1O [rooperol]
- IC50 ([1]; read-out: IC50): 25 µM
- cytotoxicity (EOC-20 cells): nontoxic

SMILES: O=c1c(-c2ccc(O)cc2)coc2cc(O)cc(O)c12 [4′,5,7-trihydroxy-isoflavone (genistein), 4′,5,7-trihydroxy-isoflavone]
- IC50 [1, 2]: 46 µM
- LD50 (EOC-20 cells; [3]): nontoxic

SMILES: COc1ccc(/C=C/c2cc(O)cc(O[C@@H]3O[C@H](CO)[C@@H](O)[C@H](O)[C@H]3O)c2)cc1O [Rhapontin (natural, rhubarb), Rhapontin]
- IC50 [1, 5]: Inactive
- LD50 (EOC-20 cells): nontoxic

SMILES: CC(C)Cc1ccc(C(C)C(=O)O)cc1 (stereo not drawn) [Ibuprofen]
- activity against TNFα-stimulated nitrite production [1]: weak activity
- IC50 [1, 5]: Inactive
- IC50 ([1]; Table V): Inactive

SMILES: CN(C)[C@@H]1C(O)=C(C(N)=O)C(=O)[C@@]2(O)C(O)=C3C(=O)c4c(O)cccc4[C@@](C)(O)[C@H]3[C@H](O)[C@@H]12 [Oxyletracycline]
- IC50 [1, 4]: 64 µM

SMILES: CC(=O)Oc1ccc(CC(C)C(C)Cc2ccc(OC(C)=O)c(OC(C)=O)c2)cc1OC(C)=O (stereo not drawn) [NDGA tetraacetyl ester]
- IC50 ([1]; Table V, read-out: IC50): 5 µM
- LD50 (EOC-20 cells; Table V): Nontoxic

SMILES: COc1ccc(-c2coc3cc(O)ccc3c2=O)cc1
- IC50 [1, 2]: 106 µM
- LD50 (EOC-20 cells; mouse): 126 μm

SMILES: O=C(/C=C/c1ccc(O)c(O)c1)O[C@H](Cc1ccc(O)c(O)c1)C(=O)O [Rosemarinic acid]
- IC50 [1, 2]: 139 µM
- LD50 (EOC-20 cells): nontoxic

SMILES: O=c1cc(-c2ccccc2)oc2cccc(O)c12 [5-OH-flavone]
- IC50 [1, 4]: 34 µM
- IC50 (LnCAP Production of PSA; extrapolated): 227 µM
- LD50 (EOC-20 cells): 310 μm

SMILES: CS(=O)(=O)Nc1ccc([N+](=O)[O-])cc1Oc1ccccc1 [Nimesulide]
- IC50 [1, 6]: 20 µM

SMILES: Oc1ccc(/C=C/c2cc(O)cc(O)c2)cc1 [Resveratrol, 3,4′,5-trihydroxy stilbene]
- IC50 [1, 2]: 80 µM
- IC50 (LnCAP Production of PSA; Homo sapiens, LNCaP): 43 µM
- LD50 (EOC-20 cells): nontoxic

SMILES: O=c1c(O)c(-c2ccc(O)cc2)oc2cc(O)cc(O)c12 [Kaempherol, 3,4′,5,7-tetrahydroxy-flavone]
- IC50 [1, 2]: 47 µM
- IC50 (LnCAP Production of PSA; Homo sapiens, LNCaP): 68 µM
- LD50 (EOC-20 cells; mouse): 70 μm

SMILES: CCOc1ccc(CC(C)C(C)Cc2ccc(OCC)c(OCC)c2)cc1OCC (stereo not drawn) [Tetra-ethyl ether of NDGA (synthetic), Tetra-ethyl ether of NDGA]
- IC50 ([1]; read-out: IC50): 0.8 µM

SMILES: c1ccc2c(c1)ccc1c3ccccc3ccc21 [Chrysene]
- IC50 [1, 5]: Inactive
- LD50 (EOC-20 cells; [3]): nontoxic

SMILES: O=c1c(O)c(-c2ccccc2)oc2cc(O)cc(O)c12 [3,5,7-trihydroxy-flavone (galangin), 3,5,7-trihydroxy-flavone]
- IC50 [1, 2]: 41 µM
- LD50 (EOC-20 cells; mouse): 58 μm

SMILES: CC(c1cc2ccccc2s1)N(O)C(N)=O (stereo not drawn) [Zileuton]
- activity against TNFα-stimulated nitrite production [1]: approximately as effective as minocycline
- IC50 [1, 7]: 105 µM
- LD50 (EOC-20 cells): Nontoxic

SMILES: N#CC(C#N)=C(N)/C(C#N)=C/c1cc(O)c(O)c(O)c1 [Tyrphostin 51]
- IC50 [1, 5]: Inactive
- LD50 (EOC-20 cells; [3]): nontoxic

SMILES: Oc1cc(O)c2c(c1)O[C@H](c1ccc(O)c(O)c1)[C@H](O)C2 [Epicatechin]
- IC50 Values (ELISA), PSA production (LnCAP Production of PSA): Inactive

SMILES: O=c1cc(-c2ccccc2)oc2cc(O)ccc12 [7-OH-flavone, 7-OH-flavone]
- IC50 [1, 4]: 65 µM
- LD50 (EOC-20 cells; [3]): 125 μm

SMILES: CC(C)(C)/[N+]([O-])=C/c1ccccc1 [phenyl N tert-butyl-nitrone (PBN), phenyl N tert-butyl-nitrone]
- IC50 [1, 4]: 100 µM
- LD50 (EOC-20 cells; [3]): nontoxic

SMILES: CC(C)(C)[N+]([O-])=Cc1ccc(O)cc1 [4-OH-PBN]
- IC50 [1, 5]: Inactive
- LD50 (EOC-20 cells; [3]): nontoxic

SMILES: COc1cc(/C=C/C(=O)CC(=O)/C=C/c2ccc(OC(C)=O)c(OC)c2)ccc1OC(C)=O [curcumin diacetyl ester]
- IC50 ([1]; Table V, read-out: IC50): 14 µM
- LD50 (EOC-20 cells; Table V): Nontoxic

SMILES: CC(C)(C)[N+]([O-])=Cc1ccccc1O [2-OH-PBN]
- IC50 [1, 5]: Inactive
- LD50 (EOC-20 cells; [3]): nontoxic

SMILES: CN(C)[C@@H]1C(O)=C(C(N)=O)C(=O)[C@@]2(O)C(O)=C3C(=O)c4c(O)cccc4[C@@](C)(O)[C@H]3C[C@@H]12 [Tetracycline]
- IC50 [1, 8]: 85 µM
- LD50 (EOC-20 cells): nontoxic

SMILES: S=C(S)N1CCCC1 [pyrollidine dithiocarbamate (PDTC), pyrollidine dithiocarbamate]
- IC50 [1, 4]: 51 µM
- LD50 (EOC-20 cells; [3]): 90 μm

SMILES: c1cc2c(cc1[C@H]1OC[C@H]3[C@@H]1CO[C@@H]3c1ccc3c(c1)OCO3)OCO2 [Sesamin, sesamin]
- IC50 [1, 6]: 42 µM
- LD50 (EOC-20 cells; Table V): Nontoxic

SMILES: C(=C\c1ccccc1)/c1ccccc1 [Trans-stilbene, Trans- stilbene]
- IC50 [1, 5]: Inactive
- LD50 (EOC-20 cells): nontoxic

SMILES: O=C(O)CCCC[C@@H]1CCSS1 (racemic) [Lipoic acid]
- IC50 [1, 5]: Inactive

SMILES: COc1ccc2c(c1)c(CC(=O)O)c(C)n2C(=O)c1ccc(Cl)cc1 [Indomethacin]
- activity against TNFα-stimulated nitrite production [1]: weak activity
- IC50 [1, 2]: 61 µM
- IC50 [1, 6]: 61 µM
- LD50 (EOC-20 cells; [3]): 124 μm
- LD50 (EOC-20 cells; [9]): 124* μM

SMILES: COc1cc(O)c2c(=O)c(-c3ccc(O)cc3)coc2c1 [4′,5-dihydroxy-7-methoxy-isoflavone]
- IC50 [1, 8]: 120 µM
- LD50 (EOC-20 cells; [3]): nontoxic

SMILES: C[C@@H]1C(=O)O[C@H]2[C@@H](O)[C@@]34[C@H]5C[C@@H](C(C)(C)C)[C@]36[C@@H](OC(=O)[C@@H]6O)O[C@@]4(C(=O)O5)[C@@]12O [gingkolide B]
- IC50 [1, 5]: Inactive
- LD50 (EOC-20 cells; [3]): nontoxic

SMILES: CN(C)c1ccc(O)c2c1C[C@H]1C[C@H]3[C@H](N(C)C)C(O)=C(C(N)=O)C(=O)[C@@]3(O)C(O)=C1C2=O [Minocycline]
- IC50 [1, 2]: 49 µM

SMILES: C[C@H](Cc1ccc(O)c(O)c1)[C@@H](C)Cc1ccc(O)c(O)c1 [NDGA (synthetic), nordihydroguaiaretic acid]
- IC50 [1, 4]: 4 µM
- IC50 ([1]; Table V, read-out: IC50): 4 µM

SMILES: COC1=C(OC)C(=O)C(C/C=C(\C)CC/C=C(\C)CC/C=C(\C)CC/C=C(\C)CC/C=C(\C)CC/C=C(\C)CC/C=C(\C)CC/C=C(\C)CC/C=C(\C)CCC=C(C)C)=C(C)C1=O [coenzyme O]
- IC50 [1, 5]: Inactive
- LD50 (EOC-20 cells): nontoxic

SMILES: CC(C)(C)[N+]([O-])=Cc1cccc(O)c1 [3-OH-PBN]
- IC50 [1, 5]: Inactive
- LD50 (EOC-20 cells; [3]): nontoxic

SMILES: CS(=O)(=O)Nc1ccc([N+](=O)[O-])cc1OC1CCCCC1 [NS-398]
- activity against TNFα-stimulated nitrite production [1]: essentially inactive
- IC50 [1, 7]: 108 µM
- LD50 (EOC-20 cells; [9]): 129* μM

SMILES: O=c1c(-c2ccc(O)cc2)coc2cc(O)ccc12 [Daidzein, 4,7-dihydroxyisoflavone]
- IC50 [1, 2]: 114 µM
- IC50 (LnCAP Production of PSA; Homo sapiens, LNCaP, extrapolated): 130 µM

SMILES: O=c1oc2c(O)c(O)cc3c(=O)oc4c(O)c(O)cc1c4c23 [Ellagic acid]
- IC50 [1, 2]: 110 µM
- LD50 (EOC-20 cells): nontoxic

SMILES: Cc1c(C)c2c(c(C)c1O)CC[C@@](C)(CCC[C@H](C)CCC[C@H](C)CCCC(C)C)O2 [alpha tocopherol]
- IC50 [1, 5]: Inactive
- LD50 (EOC-20 cells): nontoxic

SMILES: C[C@H](Cc1ccc(O)c(O)c1)[C@@H](C)Cc1ccc(O)c(O)c1 [NDGA (natural), nordihydroguaiaretic acid]
- IC50 [1, 2]: 3.1 µM
- IC50 [1, 6]: 3 µM

SMILES: O=C(/C=C/c1ccc(O)c(O)c1)c1ccc(O)cc1O [butein (2′,4′,3,4-tetrahydroxychalcone), 2′,4′,3,4-tetrahydroxychalcone]
- IC50 [1, 2]: 5.1 µM
- LD50 (EOC-20 cells; mouse): 77 μm

SMILES: C[C@@H]1C(=O)O[C@H]2C[C@@]34[C@H]5C[C@@H](C(C)(C)C)[C@]36[C@@H](OC(=O)[C@@H]6O)O[C@@]4(C(=O)O5)[C@]21O [gingkolide A]
- IC50 [1, 5]: Inactive
- LD50 (EOC-20 cells; [3]): nontoxic

SMILES: COc1cccc2c1cc([N+](=O)[O-])c1c(C(=O)O)cc3c(c12)OCO3 [Aristolochic acid]
- IC50 ([1]; Mus musculus): 29 µM
- LD50 (EOC-20 cells; Table V): 100 µM
